Assay results from patent US20250099442A1, “COMPOUNDS FOR USE IN TREATING NEUROLOGICAL DISORDERS” (Prothena Biosciences Limited, priority 2021, published 2025).

Target: DYRK1A (Homo sapiens (Human), UniProt Q13627)
Assay: DYRK1A Inhibition Assay
Type: biochemical
Conditions: Compounds of Formula (I); DYRK1A 1 nM, ATP 20 μM, Ser/Thr 18 peptide 2 μM, 90 minutes; read-out: DYRK1 IC50
Procedure: • DYRK1A—Invitrogen #PV4105 • Ser/Thr 18 peptide—Invitrogen #PR8227U • Phos-Ser/Thr 18 peptide—Invitrogen #PR8229U • Assay plate—PerkinElmer #6007279 • ATP—Sigma #A7699-5G • Development reagent A—Invitrogen #PR5194B • Development buffer—Invitrogen #PR4876B
• 1. Test compounds were diluted to 1 mM in DMSO • 2. Stock was further diluted 3-fold using Echo platform • 3. 100 nL of DMSO into Columns 1 and 24 and 100 nL of compounds dilutions to Columns 2-23 in a plate.
• 1. Add 5 μL enzyme & substrate mixture to each well in Column 2-23 and A24-H24 wells of the 384-well assay plate; • 2. Add 5 μL 0% Phosphorylation control to A1-H1 and I24-P24 wells of the assay plate; • 3. Add 5 μL 100% Phosphorylation control to I1-P1 wells of the assay plate; • 4. Spin the assay plate (1000 rpm, 1 minute @23° C.); • 5. Incubate enzyme with compounds for 15 minutes at 23° C.; • 6. Add 5 μL ATP solution to each well of the assay plate; • 7. Spin the plate (1000 rpm, 1 minute @23° C.); • 8. Incubate the assay plate for 90 minutes at 23° C.; • 9. Add 10 μL Development reagent A to each well of the assay plate; • 10. Centrifuge the plate at 1000 rpm about 15 seconds and seal a film over assay plate. Incubate the assay plate for 30 minutes at 23° C. • 11. Read assay plates on Envision (see Tables A and B).
Final Compound Concentrations […]

IC50: 100 to 1000 nM
SMILES: C(#CC1CCNCC1)c1ccc2c(-c3ccncc3)c[nH]c2n1 [Compound 97]
